Laboratory results from patent US20260022116A1, “IMIDAZOPYRIDINE COMPOUNDS, PREPARATION THEREOF AND THERAPEUTIC USES THEREOF” (SANOFI, priority 2022, published 2026).
Where two headings read alike, the source gives them in different places.

How the values were obtained:
ERK5 [1] = target: T1, ERK5 (Homo sapiens, UniProt Q13164); assay: cell-based
Target sequence in this assay (Q13164 whole entry): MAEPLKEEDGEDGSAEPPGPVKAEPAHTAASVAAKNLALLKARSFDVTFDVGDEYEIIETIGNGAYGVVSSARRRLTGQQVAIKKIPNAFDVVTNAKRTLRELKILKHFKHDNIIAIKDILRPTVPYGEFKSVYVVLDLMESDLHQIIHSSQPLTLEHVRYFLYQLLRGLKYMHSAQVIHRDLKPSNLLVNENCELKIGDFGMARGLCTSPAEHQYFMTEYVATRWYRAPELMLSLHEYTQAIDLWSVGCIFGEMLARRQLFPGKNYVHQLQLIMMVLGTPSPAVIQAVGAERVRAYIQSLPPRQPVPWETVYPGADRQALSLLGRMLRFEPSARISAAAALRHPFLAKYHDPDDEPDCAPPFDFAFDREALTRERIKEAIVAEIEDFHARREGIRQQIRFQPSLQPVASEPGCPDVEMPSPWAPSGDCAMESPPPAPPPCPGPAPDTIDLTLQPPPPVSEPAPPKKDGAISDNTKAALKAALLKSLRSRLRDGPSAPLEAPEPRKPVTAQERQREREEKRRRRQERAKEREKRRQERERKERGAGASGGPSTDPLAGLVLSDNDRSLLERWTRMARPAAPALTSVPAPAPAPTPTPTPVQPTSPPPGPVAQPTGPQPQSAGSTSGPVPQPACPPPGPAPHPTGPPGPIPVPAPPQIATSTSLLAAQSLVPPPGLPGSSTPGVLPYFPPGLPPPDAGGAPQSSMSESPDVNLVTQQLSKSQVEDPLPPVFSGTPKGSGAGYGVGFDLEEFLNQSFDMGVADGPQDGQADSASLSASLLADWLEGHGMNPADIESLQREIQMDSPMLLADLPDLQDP
Protocol: (§1) Two assays were performed to assess the ERK5 inhibitory activity of compounds of the Examples, a cell-based assay and a cell-free biochemical assay.
(§2) The renal cancer cell line SN12C was transduced by a lentivirus pGreenFire1 MEF2 EF1 Neo (ref TR030VA-N) from SBI using standard infection protocol. pGreenFire1 MEF2 EF1 Neo allows the expression of luciferase gene under the control of minimal promoter with MEF2 transcriptional response elements. Cells harboring the reporter construct were selected by geneticin treatment. The selected cells were then transposed by a piggyback based plasmid pCM4007 allowing the expression of constitutively activated MEK5DD under control of TREG3 promoter, a doxycycline regulated promoter. Transposed cells were selected by puromycin treatment. Upon doxycycline treatment (1 μg/ml) MEK5DD was expressed. MEK5DD activates ERK5 that phosphorylates MEF2C protein. Activated MEF2C protein can bind to its transcriptional response elements. Then the luciferase is expressed. In a 96-well plate (96F nuncleon ref137101 thermofisher), 50,000 cells were inoculated in 142.5 μl of RPMI medium containing 10% fetal calf serum, 1% glutamine, and 1 μg/ml doxycycline. […] The luciferase activity was measured using the Kit Bright Glo Luminescent Cell Assay Cat E2610 (Promega) according to the manufacturer's protocol. Luminescence was determined using 0.2 second reading/well using a Tecan SPARK. IC50 values were calculated using XLFIT5 for Microsoft Excel using method 205.

ERK5 [2] = target: T1, ERK5
Target sequence in this assay (Q13164 55-347 limits assumed): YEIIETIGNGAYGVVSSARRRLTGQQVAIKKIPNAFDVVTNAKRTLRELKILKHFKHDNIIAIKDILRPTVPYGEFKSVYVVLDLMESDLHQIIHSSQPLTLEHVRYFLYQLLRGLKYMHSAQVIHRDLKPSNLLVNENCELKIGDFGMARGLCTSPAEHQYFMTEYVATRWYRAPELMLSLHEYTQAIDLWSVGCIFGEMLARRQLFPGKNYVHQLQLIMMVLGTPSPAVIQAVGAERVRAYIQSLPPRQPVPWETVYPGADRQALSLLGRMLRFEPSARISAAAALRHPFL
Protocol: as §1
(§3) An assay was performed to measure the capacity of each compound to inhibit ERK5 enzymatic activity. Compound potency was evaluated by Time-Resolved Forster Resonance Energy Transfer (FRET system). […] A mixture of 1 mM ATP and 1 μM biotinylated synthetic peptide was added (Biosyntan GmbH). This synthetic peptide represents amino acids 30-52 of Eukaryotic translation initiation factor 4E-binding protein 1 (see, e.g., the sequence under accession No. NP_004086.1) biotinylated at the N-terminus.

ERK5 [3] = target: T1, ERK5; remark: listed apart in the source
Target sequence in this assay (Q13164 whole entry): as the sequence (Q13164 whole entry) above
Protocol: as §1, §2

ERK5 [4] = target: T1, ERK5; assay: biochemical
Target sequence in this assay (Q13164 55-347 limits assumed): as the sequence (Q13164 55-347 limits assumed) above
Protocol: as §1, §3

Row | Structure (SMILES) | IC50 (ERK5 [1]) [µM] | IC50 (ERK5 [2]) [µM] | IC50 (ERK5 [3]) [µM] | IC50 (ERK5 [4]) [µM]
1 | CN1CCC(c2nc3c(C4CCN(C(=O)c5ccc(OC(F)(F)F)cc5)CC4)ccnc3[nH]2)C1 (single isomer, unassigned) [Example 25, [4-[2-(1-Methylpyrrolidin-3-yl)-3H-imidazo[4,5-b]pyridin-7-yl]-1-piperidyl]-[4-(trifluoromethoxy)phenyl]methanone] | 0.179 | 0.148 |  | 
2 | COC12CC(c3nc4c(C5CCN(C(=O)c6ccc(OC(F)(F)F)cc6N)CC5)c(F)cnc4[nH]3)(C1)C2 [Example 428, [2-amino-4-(trifluoromethoxy)phenyl]-[4-[6-fluoro-2-(3-methoxy-1-bicyclo[1.1.1]pentanyl)-3H-imidazo[4,5-b]pyridin-7-yl]-1-piperidyl]methanone] |  |  | 0.005 | 0.028
3 | COC12CC(c3nc4c(C5CCN(C(=O)c6ccc(OC(F)(F)F)cc6)CC5)c(F)cnc4[nH]3)(C1)C2 [Example 426, [4-[6-fluoro-2-(3-methoxy-1-bicyclo[1.1.1]pentanyl)-3H-imidazo[4,5-b]pyridin-7-yl]-1-piperidyl]-[4-(trifluoromethoxy)phenyl]methanone] |  |  | 0.01 | 0.069
4 | Nc1cc(OC(F)(F)F)ccc1C(=O)N1CCC(c2ccnc3[nH]c(C4COCCO4)nc23)CC1 (single isomer, unassigned) [Example 144, [2-amino-4-(trifluoromethoxy)phenyl]-[4-[2-[1,4-dioxan-2-yl]-3H-imidazo[4,5-b]pyridin-7-yl]-1-piperidyl]methanone] | 0.098 |  |  | 0.102
5 | CN1CCC(c2nc3c(C4CCN(C(=O)c5ccc(OC(F)(F)F)cc5)CC4)ccnc3[nH]2)C1 (single isomer, unassigned) [Example 24, [4-[2-(1-Methylpyrrolidin-3-yl)-3H-imidazo[4,5-b]pyridin-7-yl]-1-piperidyl]-[4-(trifluoromethoxy)phenyl]methanone] | 0.15 |  |  | 0.148
6 | Nc1c(C(=O)N2CCC(c3ccnc4[nH]c(C5CCOCC5)nc34)CC2)ccc(OC(F)(F)F)c1F [Example 189, [2-amino-3-fluoro-4-(trifluoromethoxy)phenyl]-[4-(2-tetrahydropyran-4-yl-3H-imidazo[4,5-b]pyridin-7-yl)-1-piperidyl]methanone] | 0.037 |  |  | 0.036
7 | Nc1cc(OC(F)(F)F)ccc1C(=O)N1CCC(c2ccnc3[nH]c(C4CNCCO4)nc23)CC1 (single isomer, unassigned) [Example 96, [2-amino-4-(trifluoromethoxy)phenyl]-[4-[2-[morpholin-2-yl]-3H-imidazo[4,5-b]pyridin-7-yl]-1-piperidyl]methanone] | 0.087 |  |  | 0.083
